Data reported in patent US4374284A, “Antiulcer, antiinflammatory, and antiallergic agent comprising as the main ingredient olean-12-ene-3β, 30-diol which is devoid of side effects of glycyrrhetinic acid and a new process for preparation of olean-12-ene-3β, 30-diol” (Minophagen Pharmaceutical Company, priority 1980, dated 1983).
Entries after “also recorded” stand apart in the source; their conditions may differ.

What was measured:
[1] = target: T1, Δ^4 -5α-reductase for aldosterone in rat liver (Rattus norvegicus, UniProt P24008); test: inhibitory action on Δ^4-5α-reductase for aldosterone; type: biochemical
T1 construct: The pellet was appropriately diluted with a solution of 0.25 M sucrose-1 mM EDTA to use as a 5α-reductase solution; from tissue; host or cells: rat liver, 105,000 g pellet
T1 sequence (P24008 1-259): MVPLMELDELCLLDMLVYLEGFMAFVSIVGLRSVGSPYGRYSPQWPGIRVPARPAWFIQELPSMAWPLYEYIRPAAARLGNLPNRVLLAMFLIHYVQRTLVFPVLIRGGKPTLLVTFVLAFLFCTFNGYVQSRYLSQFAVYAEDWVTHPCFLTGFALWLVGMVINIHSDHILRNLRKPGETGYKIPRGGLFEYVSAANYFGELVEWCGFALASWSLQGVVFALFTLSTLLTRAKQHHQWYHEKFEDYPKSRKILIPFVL
Method: (§1) In vitro experimental results regarding effects of glycyrrhetinic acid (II) and its modified compounds (III), (IV), and (I) on Δ^4 -5α and 5β-reductase for aldosterone in rat liver will be shown below.
(§2) Assay for activity of Δ^4 -5α and 5β-reductase
(§3) (1) Preparation of enzyme solutions
(§4) Rat livers were perfused with saline and excised to prepare a 25% or 50% homogenate with a solution of 0.25 M sucrose and 1 mM EDTA. The homogenate was spun at 10,000 g for 20 minutes to separate supernatant, which was centrifuged again at 105,000 g to obtain Δ^4 -5β-reductase as the supernatant. The pellet was appropriately diluted with a solution of 0.25 M sucrose-1 mM EDTA to use as a 5α-reductase solution.
(§5) (2) Conditions for incubation and assay
(§6) 1 Aldosterone . . . 0.173 μM/0.05 ml ethanol solution
(§7) 2 Glycyrrhetinic acid or its modified compounds . . . 0.173 μM/0.05 ml ethanol solution Control . . . 0.05 ml ethanol solution
(§8) 5α-reductase solution 0.1 ml
(§9) 5β-reductase solution 0.1 ml or 0.2 ml
(§10) 5 Phosphate buffer (0.1 M, pH 7.2) 1 ml
(§11) The components 1 , 2 , 3 , 4 , 5 , and 6 mentioned above were mixed to bring the total volume up to 2.5 ml. The mixture was incubated at 37° C. for 20 minutes. Before the incubation, however, 1 ml aliquot was removed from 2.5 ml of the mixture mentioned above and extracted with 5 ml of methylene dichloride. After the incubation, the remaining 1.5 ml was extracted with 5 ml of methylene dichloride. The optical density of the two methylene dichloride solutions prepared before and after the incubation was measured by a spectrophotometer (Hitachi) at 240 mμ. Inhibition % of Δ^4 -5α and 5β-reductase activity was calculated from the difference in the optical density.

[2] = tested on: rat paw edema induced with carrageenin; test: test on rat paw edema induced with carrageenin (antiinflammatory); type: in vivo, male Wister rats
Method: (a) Test on rat paw induced with carrageenin
To the plantar side of the hind paw of male Wister rats was administered subcutaneously 0.05 ml/rat of 10% saline solution of carrageenin. Edema after three hours was measured by the volume method and the rate of inhibition was assayed. Compounds were administered orally 30 minutes before administration of carrageenin. [formula]

aspirin-induced ulcer = test: rat experiment on aspirin-induced ulcer, pylorus ligated (experiment a); type: in vivo, male Wister rats
Method: (b) Rat experiment on aspirin-induced ulcer
(a) Experimental procedures:
Male Wister rats weighing about 220 g were made to fast for 24 hours. Water was given freely. The rats were laparotomized under anesthesia with ether. The stomach was drawn out and ligated at the pylorus. Immediately thereafter, 1% CMC suspension of aspirin was administered orally in a dose of 100 mg/kg/5 ml. Aqueous suspensions of compounds to be tested were prepared in the same manner as in the experiment (a) and administered intraduodenally at the same time. The wound was closed and the rats were set free. After 7 hours, the stomach was excised and ulcer was measured in the same manner as in the experiment (a).

acute toxicity test = type: in vivo, male mice (ddY); details: mouse, in vivo
Method: (§12) To male mice (ddY) weighing 24 g-26 g, 10 mice in one group, compounds to be tested (suspended in Tween 80) in various doses of the ratio (1, 2) were administered (orally and intraperitoneally), and LD50 was determined by the Litchfield-Wilcoxon method.

mice = test: acute toxicity test; type: in vivo, male mice (ddY); details: oral and intraperitoneal
Method: as §12

[3] = tested on: writhing induced by acetic acid; test: effect on writhing induced by acetic acid (analgesic action); type: in vivo, male ddY mice; details: for number of writhing: counted for 10 minutes, control 24.9 ± 1.6, ** p < 0.01
Method: (b) Effect on writhing induced by acetic acid (analgesic action)
The present compound olean-12-ene-3β, 30-diol (I) was administered orally to male ddY mice weighing 25-27 g. After 30 minutes, saline containing 0.7% acetic acid was administered intraperitoneally. The number of writhings of the mice was counted for 10 minutes from, 10 min. of the administration. Aspirin was used as the reference.

[4] = target: T2, Δ^4 -5β-reductase for aldosterone in rat liver (Rattus norvegicus, UniProt P31210); test: inhibitory action on Δ^4-5β-reductase for aldosterone; type: biochemical; details: summary in words, liver reductase
T2 construct: centrifuged again at 105,000 g to obtain Δ^4 -5β-reductase as the supernatant; from tissue; host or cells: rat liver, 105,000 g supernatant (cytosol)
T2 sequence (P31210 1-326): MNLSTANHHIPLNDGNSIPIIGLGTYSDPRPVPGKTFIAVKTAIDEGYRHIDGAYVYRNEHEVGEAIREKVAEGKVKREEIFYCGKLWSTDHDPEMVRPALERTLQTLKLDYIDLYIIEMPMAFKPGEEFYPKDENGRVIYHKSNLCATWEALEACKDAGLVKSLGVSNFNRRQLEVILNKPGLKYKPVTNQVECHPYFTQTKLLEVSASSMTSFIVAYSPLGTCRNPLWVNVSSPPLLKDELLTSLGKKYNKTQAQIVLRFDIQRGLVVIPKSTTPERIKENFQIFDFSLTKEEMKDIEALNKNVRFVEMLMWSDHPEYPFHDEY
Method: as §1, §2, §3, §4, §5, §6, §7, §8, §9, §10, §11

[5] = tested on: Δ^4 -5β-reductase for aldosterone in rat liver; test: as above; type: biochemical; details: conclusion from reductase experiments
Method: as §1, §2, §3, §4, §5, §6, §7, §8, §9, §10, §11

With `CC1(C)[C@@H](O)CC[C@]2(C)[C@H]3CC=C4[C@@H]5C[C@@](C)(CO)CC[C@]5(C)CC[C@@]4(C)[C@]3(C)CC[C@@H]12` [I, olean-12-ene-3β, 30-diol] the inhibition at 0.173 µM ([1]; pH 7.2, read-out: 5α-reductase (inhibition %)) was -7.1%, the “effect upon Δ^4 -5α-5β-reductase (in words), 5α” value ([1]; summary in words, liver reductase) was “no inhibitory activity” and the edema % ([2]; 200 mg/kg p.o., after three hours, control 71 ± 6) was 52 ± 5%. For the same compound, the inhibition at 200 mg/kg ([2]; Rattus norvegicus, po, 3 h, edema, 200 mg/kg p.o., after three hours) was 26.8%, the “inhibitory activity against inflammation (in words)” value ([2]; rat, in vivo) was “has an inhibitory activity against inflammation, but the activity is inferior to that of aspirin; also recorded: will not affect the inhibitory activity of aspirin” and the ulcer index (aspirin-induced ulcer; 320 mg/kg (head p.o.; text intraduodenally), aspirin 100 mg/kg, after 7 hours, control 14.1 ± 3.14) was 6.2 ± 2.37. The “inhibitory effect on aspirin-induced ulcer, experiment (a) (in words)” value (aspirin-induced ulcer; rat, in vivo) was “showed an inhibitory effect”, the LD50 (acute toxicity test; ip, intraperitoneal administration) was greater than 4000 mg/kg and the LD50 (acute toxicity test; oral administration) was greater than 5000 mg/kg. For the same compound, the “acute toxicity (in words)” value (mice) was “very low toxicity”, the number of writhing ([3]; 100 mg/kg p.o.) was 15.5 ± 2.8 and the number of writhing ([3]; 200 mg/kg p.o.) was 11.1 ± 1.6. The number of writhing ([3]; 400 mg/kg p.o.) was 8.0 ± 1.7, the “effect on writhing (in words)” value ([3]; increasing doses) was “significantly decrease the number of writhing; also recorded: a little stronger than that of (II), but not so perfect as aspirin” and the “effect upon Δ^4 -5α-5β-reductase (in words), 5β” value [4] was “no inhibitory activity”. For the same compound, the “aldosterone-like action (in words)” value [5] was “entirely devoid of aldosterone-like action”.
